From patent US8598157B2, “5-alkynyl-pyridines” (Boehringer Ingelheim International GmbH, priority 2011, dated 2013)

How the values were obtained:
PI3Kalpha = PI3Kalpha (Homo sapiens (Human), UniProt P42336); assay: Inhibition of PI3Kalpha-induced PIP-2 phosphorylation (filter-binding assay); assay type: biochemical; conditions: 33P-ATP, p85alpha/His-p110alpha, read-out: IC50 PI3Kα
Procedure, shortened: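 Radiometric filter-binding assay: PI3Kα (25 ng/well) preincubated 20 min at room temperature with compound and PIP2-containing lipid vesicles plus phosphotyrosine PDGFRβ peptide. Reaction started with cold ATP (1 μM final) and [33P]-ATP and run 120 min at room temperature; filter-captured radioactivity counted, IC50 from duplicate dilution series.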

H460 cells = assay: alamarBlue H460 cell assay (antiproliferative/cytotoxicity); assay type: cell-based; conditions: NCI-H460; H460 human lung carcinoma cells
Procedure, shortened: (§1)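 Seed cells, incubate overnight 37 °C CO2; add cpds (final 10 μM, 1:3 serial, 10 steps, duplicates); incubate 5-6 d; alamarBlue 8 h 37 °C; fluorescence ex 530-560/em 590 nm; blank-subtracted EC50.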

MB453 cells = assay: alamarBlue MB453 cell assay (antiproliferative/cytotoxicity); assay type: cell-based; conditions: Homo sapiens; MDA MB 453 breast cancer cell line
Procedure, shortened: as §1

U87 cells = assay: U87 cell assay (antiproliferative/cytotoxicity); assay type: cell-based; conditions: U-87MG human glioblastoma cells
Procedure, shortened: as §1

MCF7 cells = assay: alamarBlue MCF7 cell assay (antiproliferative/cytotoxicity); assay type: cell-based; conditions: MCF7 human breast cancer cell line
Text: The H460, MB453, U87, MCF7 and BT474 alamarBlue cell assays provide EC50 values indicative of the antiproliferative or cytotoxic effects of the compounds to respectively the H460 (human non small cell line cancer), MB-453 (breast cancer cell line), U87 (glioblastoma cell line), MCF7 (breast cancer cell line) and BT474 (breast cancer cell line). As known in the field, antiproliferative or cytotoxic effect against this cell lines would be expected to be indicative of activity in treating lung, breast and brain cancers. See R. Marone R et al. Biochim. Biophys. Acta. 2008 January; 1784(1):159-85. S. Yaguchi et al., J. Natl. Cancer Inst. 2006 Apr. 19; 98(8):545-56.
Method Type: Antiproliferative/Cytotoxicity
alamarBlue® is designed to provide a rapid and sensitive measure of cell proliferation and cytotoxicity in various human and animal cell lines. The assay is based on the reduction of alamarBlue in the reducing environment of living (metabolically active) cells. In the presence of added cytotoxic or antiproliferative compounds, the innate metabolic activity ceases.
AlamarBlue is soluble and stable in culture medium. Measurements are made fluorometrically by exciting at 530-560 nm and measuring emission at 590 nm. In reporting percent alamarBlue reduction by monitoring fluorescence, data are expressed as fluorescence emission intensity units as a function of time of incubation.
3. Equipment • 96-well plates, flat bottom (Falcon, Cat. No.: 353072) • 96-well plates, U-shaped (Costar, Cat. No.: 3799) • CO2-Incubator • Microplate Reader, Spectramax Plus, Molecular Devices 4. Typical Procedure • Day 0: Seed 3000 BT-474 cells (IMDM/5% FCS, 1% NEAA, 1% Sodiumpyruvat) in 150 μl medium into a 96-well plate, flat bottom (include mediumblank). Incubate plates at 37° C. in a CO2 incubator overnight. • Day 1: Dilute compounds to a concentration 40 μM->1:3 in medium, 10 dilution steps, in 96-well plates. • Add 50 μl per well of each dilution (total volume per well 200 μl; final conc. of cpds: 10 μM->1:3). If required, test further dilutions. • All concentrations are tested in duplicates. • Controls: Cells w/o cpd. (+50 μl medium/DMSO). • Cells are incubated with compounds for 5-6 days. • Day 6 or 7: Add 25 μl of alamarBlue solution to each well and incubate for 8 hours at 37° C. Measure fluorescence by exciting at 530-560 nm and measuring emission at 590 nm. 5. Evaluation • Subtract average value for medium blank from sample readings • Calculate EC50 using GraphPad Prism (Fifty)

BT474 cells = assay: alamarBlue BT474 cell assay (antiproliferative/cytotoxicity); assay type: cell-based; conditions: BT-474 human breast cancer cell line
Procedure, shortened: as §1

Sequence of PI3Kalpha (P42336 whole entry): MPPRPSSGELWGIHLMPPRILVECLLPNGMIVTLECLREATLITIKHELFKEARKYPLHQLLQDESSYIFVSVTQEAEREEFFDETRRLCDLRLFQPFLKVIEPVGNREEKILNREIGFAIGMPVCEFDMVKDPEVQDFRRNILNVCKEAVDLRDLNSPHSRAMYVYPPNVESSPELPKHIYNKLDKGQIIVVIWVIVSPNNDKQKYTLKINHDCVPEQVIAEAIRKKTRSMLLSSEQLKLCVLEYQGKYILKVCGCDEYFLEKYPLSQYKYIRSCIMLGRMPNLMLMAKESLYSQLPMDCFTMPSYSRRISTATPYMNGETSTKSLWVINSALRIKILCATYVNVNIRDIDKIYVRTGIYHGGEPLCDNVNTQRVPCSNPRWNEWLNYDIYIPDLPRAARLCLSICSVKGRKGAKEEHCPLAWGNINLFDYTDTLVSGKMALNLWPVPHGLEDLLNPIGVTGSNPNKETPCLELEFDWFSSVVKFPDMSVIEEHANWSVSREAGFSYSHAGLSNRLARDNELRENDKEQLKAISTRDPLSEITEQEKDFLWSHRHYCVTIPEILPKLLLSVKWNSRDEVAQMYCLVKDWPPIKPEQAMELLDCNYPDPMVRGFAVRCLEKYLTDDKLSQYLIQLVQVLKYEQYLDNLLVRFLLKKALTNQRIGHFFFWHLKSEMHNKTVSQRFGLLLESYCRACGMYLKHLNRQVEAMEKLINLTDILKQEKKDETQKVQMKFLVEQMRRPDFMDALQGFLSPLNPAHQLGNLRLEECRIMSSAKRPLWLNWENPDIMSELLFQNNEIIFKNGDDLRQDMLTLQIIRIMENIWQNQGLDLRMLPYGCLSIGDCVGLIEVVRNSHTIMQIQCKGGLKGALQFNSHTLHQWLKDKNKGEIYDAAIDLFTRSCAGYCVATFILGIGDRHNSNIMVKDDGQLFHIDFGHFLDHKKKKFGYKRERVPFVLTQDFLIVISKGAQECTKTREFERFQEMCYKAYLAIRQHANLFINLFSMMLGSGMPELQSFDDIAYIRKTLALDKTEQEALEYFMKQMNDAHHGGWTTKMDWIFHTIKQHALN

Row | Structure (SMILES) | IC50 (PI3Kalpha) | EC50 (H460 cells) | EC50 (MB453 cells) | EC50 (U87 cells) | EC50 (MCF7 cells) | EC50 (BT474 cells)
1 | Cc1ncc(C#Cc2c(C)ncnc2N2CCN(C)CC2)cc1NS(=O)(=O)c1ccc(F)cc1F [Example I-18, 2,4-Difluoro-N-{2-methyl-5-[4-methyl-6-(4-methyl-piperazin-1-yl)-pyrimidin-5-ylethynyl]-pyridin-3-yl}-benzenesulfonamide] | 1 nM | 269 nM | 418 nM | 358 nM | 72 nM | 221 nM
2 | Cc1ncc(C#Cc2c(C)ncnc2N2CCOCC2)cc1NS(=O)(=O)c1cn(C)cn1 [Example I-9, 1-Methyl-1H-imidazole-4-sulfonic acid [2-methyl-5-(4-methyl-6-morpholin-4-yl-pyrimidin-5-ylethynyl)-pyridin-3-yl]-amide] | 1 nM | 1460 nM | 1070 nM | 1450 nM | 748 nM | 856 nM
3 | CCc1ncnc(N(C)C)c1C#Cc1cnc(C)c(NS(=O)(=O)c2ccc(F)cc2)c1 [Example I-27, N-[5-(4-Dimethylamino-6-ethyl-pyrimidin-5-ylethynyl)-2-methyl-pyridin-3-yl]-4-fluoro-benzenesulfonamide] | 1 nM | 791 nM | 1220 nM | 1620 nM | 10000 nM | 10000 nM
4 | Cc1ncc(C#Cc2c(C)ncnc2N2CCOCC2)cc1NS(=O)(=O)c1ccccc1C(F)(F)F [Example I-13, N-[2-Methyl-5-(4-methyl-6-morpholin-4-yl-pyrimidin-5-ylethynyl)-pyridin-3-yl]-2-trifluoromethyl-benzenesulfonamide] | 0.63 nM | 23 nM | 63 nM | 108 nM | 18 nM | 69 nM
5 | CCCS(=O)(=O)Nc1cc(C#Cc2c(C)ncnc2N2CCOCC2)cnc1C [Example I-3, Propane-1-sulfonic acid [2-methyl-5-(4-methyl-6-morpholin-4-yl-pyrimidin-5-ylethynyl)-pyridin-3-yl]-amide] | 5 nM | 315 nM | 777 nM | 529 nM | 451 nM | 1040 nM
6 | Cc1ncnc(N2CCOCC2)c1C#Cc1cncc(NS(=O)(=O)c2cccs2)c1 [Example I-21, Thiophene-2-sulfonic acid [5-(4-methyl-6-morpholin-4-yl-pyrimidin-5-ylethynyl)-pyridin-3-yl]-amide] | 0.53 nM | 357 nM | 155 nM | 340 nM | 40 nM | 196 nM
7 | Cc1ncc(C#Cc2c(C)ncnc2N2CCOCC2)cc1NS(=O)(=O)C1CCCCC1 [Example I-39, Cyclohexanesulfonic acid [2-methyl-5-(4-methyl-6-morpholin-4-yl-pyrimidin-5-ylethynyl)-pyridin-3-yl]-amide] | 5 nM | 1850 nM | 1790 nM | 2910 nM | 1290 nM | 2770 nM
8 | Cc1ncc(C#Cc2c(C)ncnc2N2CCOCC2)cc1NS(=O)(=O)c1cccc(F)c1 [Example I-6, 3-Fluoro-N-[2-methyl-5-(4-methyl-6-morpholin-4-yl-pyrimidin-5-ylethynyl)-pyridin-3-yl]-benzenesulfonamide] | 1 nM | 130 nM | 259 nM | 368 nM | 75 nM | 194 nM
9 | Cc1ncc(C#Cc2c(C)ncnc2N2CCOCC2)cc1NS(=O)(=O)c1ccccc1Br [Example I-8, 2-Bromo-N-[2-methyl-5-(4-methyl-6-morpholin-4-yl-pyrimidin-5-ylethynyl)-pyridin-3-yl]-benzenesulfonamide] | 1 nM | 47 nM | 143 nM | 205 nM | 46 nM | 134 nM
10 | Cc1ncc(C#Cc2c(C)ncnc2N2CCOCC2)cc1NS(=O)(=O)c1cc(F)cc(F)c1 [Example I-31, 3,5-Difluoro-N-[2-methyl-5-(4-methyl-6-morpholin-4-yl-pyrimidin-5-ylethynyl)-pyridin-3-yl]-benzenesulfonamide] | 0.97 nM | 509 nM | 245 nM | 609 nM | 50 nM | 178 nM
11 | Cc1ncc(C#Cc2c(C)ncnc2N2CCOCC2)cc1NS(=O)(=O)c1ccc(F)cc1 [Example I-30, 4-Fluoro-N-[2-methyl-5-(4-methyl-6-morpholin-4-yl-pyrimidin-5-ylethynyl)-pyridin-3-yl]-benzenesulfonamide] | 0.43 nM | 230 nM | 148 nM | 385 nM | 21 nM | 122 nM
12 | Cc1ncc(C#Cc2c(C)ncnc2N2CCOCC2)cc1NS(=O)(=O)c1cnoc1C [Example I-47, 5-Methyl-isoxazole-4-sulfonic acid [2-methyl-5-(4-methyl-6-morpholin-4-yl-pyrimidin-5-ylethynyl)-pyridin-3-yl]-amide] | 21 nM | 25000 nM | 25000 nM | 25000 nM | 10000 nM | 10000 nM
13 | CCc1ncnc(N2CCOCC2)c1C#Cc1cnc(OC)c(NS(=O)(=O)c2ccc(F)cc2F)c1 [Example I-25, N-[5-(4-Ethyl-6-morpholin-4-yl-pyrimidin-5-ylethynyl)-2-methoxy-pyridin-3-yl]-2,4-difluoro-benzenesulfonamide] | 0.63 nM | 15 nM | 46 nM | 104 nM | 11 nM | 22 nM
14 | Cc1ncc(C#Cc2c(C)ncnc2N2CCCCC2)cc1NS(=O)(=O)c1ccc(F)cc1F [Example I-14, 2,4-Difluoro-N-[2-methyl-5-(4-methyl-6-piperidin-1-yl-pyrimidin-5-ylethynyl)-pyridin-3-yl]-benzenesulfonamide] | 0.85 nM | 245 nM | 444 nM | 615 nM | 114 nM | 252 nM
15 | CC(=O)N1CCN(c2ncnc(C)c2C#Cc2cnc(C)c(NS(=O)(=O)c3ccc(F)cc3F)c2)CC1 [Example I-17, N-{5-[4-(4-Acetyl-piperazin-1-yl)-6-methyl-pyrimidin-5-ylethynyl]-2-methyl-pyridin-3-yl}-2,4-difluoro-benzenesulfonamide] | 0.79 nM | 965 nM | 521 nM | 1890 nM | 73 nM | 354 nM
16 | CCc1ncnc(N2CCN(C(C)=O)CC2)c1C#Cc1cnc(C)c(NS(=O)(=O)c2ccc(F)cc2)c1 [Example I-68, N-{5-[4-(4-Acetyl-piperazin-1-yl)-6-ethyl-pyrimidin-5-ylethynyl]-2-methyl-pyridin-3-yl}-4-fluoro-benzenesulfonamide] | 0.47 nM | 542 nM | 116 nM | 545 nM | 36 nM | 117 nM
17 | CCc1ncnc(N2CCN(C)CC2)c1C#Cc1cnc(C)c(NS(=O)(=O)c2ccc(F)cc2)c1 [Example I-65, N-{5-[4-Ethyl-6-(4-methyl-piperazin-1-yl)-pyrimidin-5-ylethynyl]-2-methyl-pyridin-3-yl}-4-fluoro-benzenesulfonamide] | 0.89 nM | 168 nM | 230 nM | 524 nM | 28 nM | 281 nM
